# Data taken from article PMC4300089, “Structure-Guided Design of Selective Epac1 and Epac2 Agonists” (PLoS Biology, 2015).
# Columns and labels:
# Epac2^fl = biological target: T1, Epac2^fl (Mus musculus, UniProt Q9EQZ6); assay: Epac activation assay, full length Epac2; type: biochemical; parameters: made in house; conditions: for Rel. kmax: maximal activity relative to cAMP
# T1 sequence (Q9EQZ6 1-993 isoform Q9EQZ6-3): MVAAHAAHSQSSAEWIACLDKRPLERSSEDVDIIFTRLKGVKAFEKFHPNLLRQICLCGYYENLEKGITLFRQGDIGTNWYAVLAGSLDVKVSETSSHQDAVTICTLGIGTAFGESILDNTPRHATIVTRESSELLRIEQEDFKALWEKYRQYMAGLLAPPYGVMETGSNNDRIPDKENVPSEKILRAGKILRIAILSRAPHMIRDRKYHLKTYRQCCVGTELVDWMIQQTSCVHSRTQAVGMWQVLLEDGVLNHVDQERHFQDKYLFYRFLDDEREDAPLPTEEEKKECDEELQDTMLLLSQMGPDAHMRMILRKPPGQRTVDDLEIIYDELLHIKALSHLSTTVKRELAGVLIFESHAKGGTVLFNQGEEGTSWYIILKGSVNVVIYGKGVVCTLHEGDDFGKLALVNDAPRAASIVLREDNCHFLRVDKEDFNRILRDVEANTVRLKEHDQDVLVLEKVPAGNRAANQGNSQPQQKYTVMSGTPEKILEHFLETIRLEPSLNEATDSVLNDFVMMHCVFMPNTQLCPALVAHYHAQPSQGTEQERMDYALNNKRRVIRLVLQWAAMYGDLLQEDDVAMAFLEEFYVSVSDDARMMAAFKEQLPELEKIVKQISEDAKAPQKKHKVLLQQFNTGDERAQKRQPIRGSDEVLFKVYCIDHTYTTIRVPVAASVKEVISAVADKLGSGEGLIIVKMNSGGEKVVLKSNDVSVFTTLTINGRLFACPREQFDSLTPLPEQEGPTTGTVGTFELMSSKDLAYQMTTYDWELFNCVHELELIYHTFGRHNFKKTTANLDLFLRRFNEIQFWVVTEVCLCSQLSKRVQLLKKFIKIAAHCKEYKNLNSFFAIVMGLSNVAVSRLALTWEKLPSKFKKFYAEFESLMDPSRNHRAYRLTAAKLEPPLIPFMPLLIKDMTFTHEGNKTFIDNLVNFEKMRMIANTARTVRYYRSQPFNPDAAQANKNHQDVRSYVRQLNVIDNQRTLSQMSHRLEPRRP
# Protocol: (§1) Murine Epac2 was used as all previous structural studies were performed with it.
# (§2) The activity of Epac was determined by a fluorescence assay. […] The fluorescence intensity of Rap1B•mGDP is approximately twice that of free mGDP, and thus, nucleotide exchange can be observed as a decay in fluorescence upon the addition of excess unlabeled GDP.
# Epac2^Δ280,K450A = biological target: T2, Epac2^Δ280,K450A (Mus musculus, UniProt Q9EQZ6, K468A); assay: Epac activation assay, Epac2 K450A mutant; type: biochemical
# T2 construct: made in house
# T2 sequence (Q9EQZ6 281-993 isoform Q9EQZ6-3 K450A): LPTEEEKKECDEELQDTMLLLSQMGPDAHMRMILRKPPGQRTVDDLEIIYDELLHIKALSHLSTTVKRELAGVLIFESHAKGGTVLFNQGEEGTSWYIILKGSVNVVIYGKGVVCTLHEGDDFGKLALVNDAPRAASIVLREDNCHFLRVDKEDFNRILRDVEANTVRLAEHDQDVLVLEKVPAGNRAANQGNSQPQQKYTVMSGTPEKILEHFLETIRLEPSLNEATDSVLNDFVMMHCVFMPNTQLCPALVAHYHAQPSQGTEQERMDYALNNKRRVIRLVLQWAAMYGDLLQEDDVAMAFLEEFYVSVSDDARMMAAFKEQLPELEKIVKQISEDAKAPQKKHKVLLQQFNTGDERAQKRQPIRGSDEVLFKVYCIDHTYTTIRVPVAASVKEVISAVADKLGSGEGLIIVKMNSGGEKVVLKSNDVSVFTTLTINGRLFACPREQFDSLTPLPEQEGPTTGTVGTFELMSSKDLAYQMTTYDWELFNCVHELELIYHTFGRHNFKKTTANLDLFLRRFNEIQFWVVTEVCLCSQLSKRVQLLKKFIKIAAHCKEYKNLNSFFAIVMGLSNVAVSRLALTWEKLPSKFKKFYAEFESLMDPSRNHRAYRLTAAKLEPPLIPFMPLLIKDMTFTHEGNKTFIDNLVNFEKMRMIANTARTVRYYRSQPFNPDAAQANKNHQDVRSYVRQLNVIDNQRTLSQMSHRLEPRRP
# Protocol: as §1, §2
structure (smiles),measurement,setting,value
"Nc1ncnc2c1nc(SCc1ccccc1)n2[C@@H]1O[C@@H]2CO[P@](O)(=S)O[C@H]2[C@H]1O [S-220, Sp-8-BnT-cAMPS]",kobs,Epac2^fl; 0.001 μM compound,1.9e-05 s⁻¹
same,kobs,Epac2^fl; 0.03 μM compound,4.4e-05 s⁻¹
same,kobs,Epac2^fl; 0.04 μM compound,4.9e-05 s⁻¹
same,kobs,Epac2^fl; 0.05 μM compound,5.4e-05 s⁻¹
same,kobs,Epac2^fl; 0.06 μM compound,6e-05 s⁻¹
same,kobs,Epac2^fl; 0.07 μM compound,6.8e-05 s⁻¹
same,kobs,Epac2^fl; 0.08 μM compound,6.9e-05 s⁻¹
same,kobs,Epac2^fl; 0.1 μM compound,9.1e-05 s⁻¹
same,kobs,Epac2^fl; 0.2 μM compound,0.00016 s⁻¹
same,kobs,Epac2^fl; 0.3 μM compound,0.000217 s⁻¹
same,kobs,Epac2^fl; 0.4 μM compound,0.000258 s⁻¹
same,kobs,Epac2^fl; 0.5 μM compound,0.000295 s⁻¹
same,kobs,Epac2^fl; 0.6 μM compound,0.000369 s⁻¹
same,kobs,Epac2^fl; 0.7 μM compound,0.000402 s⁻¹
same,kobs,Epac2^fl; 0.8 μM compound,0.000428 s⁻¹
same,kobs,Epac2^fl; 1 μM compound,0.000509 s⁻¹
same,kobs,Epac2^fl; 2 μM compound,0.000819 s⁻¹
same,kobs,Epac2^fl; 3 μM compound,0.000975 s⁻¹
same,kobs,Epac2^fl; 4 μM compound,0.00102 s⁻¹
same,kobs,Epac2^fl; 5 μM compound,0.0011 s⁻¹
same,kobs,Epac2^fl; 6 μM compound,0.00114 s⁻¹
same,kobs,Epac2^fl; 7 μM compound,0.00118 s⁻¹
same,kobs,Epac2^fl; 8 μM compound,0.00118 s⁻¹
same,kobs,Epac2^fl; 10 μM compound,0.00125 s⁻¹
same,kobs,Epac2^fl; 20 μM compound,0.00149 s⁻¹
same,kobs,Epac2^fl; 30 μM compound,0.00153 s⁻¹
same,kobs,Epac2^fl; 40 μM compound,0.00152 s⁻¹
same,kobs,Epac2^fl; 50 μM compound,0.0015 s⁻¹
same,kobs,Epac2^fl; 60 μM compound,0.00155 s⁻¹
same,kobs,Epac2^fl; 70 μM compound,0.00155 s⁻¹
same,kobs,Epac2^fl; 80 μM compound,0.00152 s⁻¹
same,kobs,Epac2^fl; 100 μM compound,0.0015 s⁻¹
same,AC50,Epac2^fl; Epac2^fl,2.1 µM
same,potency relative to cAMP by activation potential (times more potently than cAMP),Epac2^fl; Epac2^fl,200 times
same,Rel. kmax,Epac2^fl; Epac2^fl,6.6
same,kobs,"Epac2^Δ280,K450A; 0.001 μM compound",3.1e-05 s⁻¹
same,kobs,"Epac2^Δ280,K450A; 0.003 μM compound",3.7e-05 s⁻¹
same,kobs,"Epac2^Δ280,K450A; 0.005 μM compound",4.4e-05 s⁻¹
same,kobs,"Epac2^Δ280,K450A; 0.008 μM compound",5.2e-05 s⁻¹
same,kobs,"Epac2^Δ280,K450A; 0.02 μM compound",0.00011 s⁻¹
same,kobs,"Epac2^Δ280,K450A; 0.03 μM compound",0.000139 s⁻¹
same,kobs,"Epac2^Δ280,K450A; 0.04 μM compound",0.000168 s⁻¹
same,kobs,"Epac2^Δ280,K450A; 0.05 μM compound",0.000199 s⁻¹
same,kobs,"Epac2^Δ280,K450A; 0.06 μM compound",0.000232 s⁻¹
same,kobs,"Epac2^Δ280,K450A; 0.07 μM compound",0.00026 s⁻¹
same,kobs,"Epac2^Δ280,K450A; 0.08 μM compound",0.000277 s⁻¹
same,kobs,"Epac2^Δ280,K450A; 0.1 μM compound",0.000306 s⁻¹
same,kobs,"Epac2^Δ280,K450A; 0.2 μM compound",0.000564 s⁻¹
same,kobs,"Epac2^Δ280,K450A; 0.3 μM compound",0.000705 s⁻¹
same,kobs,"Epac2^Δ280,K450A; 0.4 μM compound",0.000743 s⁻¹
same,kobs,"Epac2^Δ280,K450A; 0.5 μM compound",0.000763 s⁻¹
same,kobs,"Epac2^Δ280,K450A; 0.6 μM compound",0.000845 s⁻¹
same,kobs,"Epac2^Δ280,K450A; 0.7 μM compound",0.000882 s⁻¹
same,kobs,"Epac2^Δ280,K450A; 0.8 μM compound",0.000882 s⁻¹
same,kobs,"Epac2^Δ280,K450A; 1 μM compound",0.000894 s⁻¹
same,kobs,"Epac2^Δ280,K450A; 2 μM compound",0.000904 s⁻¹
same,kobs,"Epac2^Δ280,K450A; 3 μM compound",0.000886 s⁻¹
same,kobs,"Epac2^Δ280,K450A; 4 μM compound",0.000912 s⁻¹
same,kobs,"Epac2^Δ280,K450A; 5 μM compound",0.000879 s⁻¹
same,kobs,"Epac2^Δ280,K450A; 6 μM compound",0.00102 s⁻¹
same,kobs,"Epac2^Δ280,K450A; 7 μM compound",0.00106 s⁻¹
same,kobs,"Epac2^Δ280,K450A; 8 μM compound",0.00109 s⁻¹
same,kobs,"Epac2^Δ280,K450A; 10 μM compound",0.00103 s⁻¹
same,kmax-value,"Epac2^Δ280,K450A; Epac2^Δ280,K450A",reduced to that of S-000
"COC1C2OP(=O)(O)OCC2OC1n1c(Sc2ccc(Cl)cc2)nc2c(N)ncnc21 [D-007, 8-pCPT-2′-O-Me-cAMP, reference compound]",kobs,Epac2^fl; 0.3 μM compound,1.59e-05 s⁻¹
same,kobs,Epac2^fl; 0.5 μM compound,1.62e-05 s⁻¹
same,kobs,Epac2^fl; 0.8 μM compound,1.75e-05 s⁻¹
same,kobs,Epac2^fl; 1 μM compound,1.95e-05 s⁻¹
same,kobs,Epac2^fl; 2 μM compound,2.18e-05 s⁻¹
same,kobs,Epac2^fl; 3 μM compound,2.37e-05 s⁻¹
same,kobs,Epac2^fl; 4 μM compound,2.69e-05 s⁻¹
same,kobs,Epac2^fl; 5 μM compound,2.86e-05 s⁻¹
same,kobs,Epac2^fl; 6 μM compound,3.39e-05 s⁻¹
same,kobs,Epac2^fl; 7 μM compound,3.51e-05 s⁻¹
same,kobs,Epac2^fl; 8 μM compound,3.74e-05 s⁻¹
same,kobs,Epac2^fl; 10 μM compound,4.22e-05 s⁻¹
same,kobs,Epac2^fl; 20 μM compound,5.69e-05 s⁻¹
same,kobs,Epac2^fl; 30 μM compound,7e-05 s⁻¹
same,kobs,Epac2^fl; 40 μM compound,7.51e-05 s⁻¹
same,kobs,Epac2^fl; 50 μM compound,7.76e-05 s⁻¹
same,kobs,Epac2^fl; 60 μM compound,8.43e-05 s⁻¹
same,kobs,Epac2^fl; 70 μM compound,8.92e-05 s⁻¹
same,kobs,Epac2^fl; 80 μM compound,9.01e-05 s⁻¹
same,kobs,Epac2^fl; 100 μM compound,9.57e-05 s⁻¹
same,kobs,Epac2^fl; 200 μM compound,9.52e-05 s⁻¹
same,kobs,Epac2^fl; 400 μM compound,9.57e-05 s⁻¹
same,kobs,Epac2^fl; 600 μM compound,9.06e-05 s⁻¹
same,kobs,Epac2^fl; 800 μM compound,8.29e-05 s⁻¹
same,ability to reach half-maximal cAMP activity,Epac2^fl; Epac2,reaches half-maximal cAMP activity with Epac2 only under saturating conditions
same,AC50,Epac2^fl; Epac2^fl,16 µM
same,Rel. kmax,Epac2^fl; Epac2^fl,0.4
